Assay results taken from patent US12378193B2, “Anti-arrhythmicity agents” (The Regents of the University of California, priority 2014, dated 2025).
One block for each molecule: values may come before it.

What was measured:
[1] = system: Zebrafish embryo injected with morpholino to NCX1h; experiment: Zebrafish screening: injection with morpholino to NCX1h; assay type: in vivo; details: for Injection with Morpholino: % Rescued: Table 1; for Rescue percent: Table 3, morpholino mutants
Description: (§1) We screened our above mention library by using tremblor mutants Zebrafish embryos. […] Compounds were screened for their ability to suppress cardiac fibrillation and/or restore rhythmic synchronized contraction. Briefly, we treated the embryo by soaking in 20 μM solution or injecting compounds after 24 hours fertilization and observed the phenotype after 48 hours. Further, we determined the structure-activity relationship (SAR) between the active compound's structures and the ability to suppress cardiac fibrillation and/or restore rhythmic synchronized contraction.
(§2) Zebrafish eggs were collected at 1 cell stages. 1 nL of compound in Daneu's buffer and 1 nL of morpholino (1 mM) to NCX1h was injected into the embryo. After 24 hours the embryo was arrayed in 24-well plates (20 twenty embryos/well) in 500 μL buffer. After 48 hour fertilization in 29° C., phenotypic changes were observed using a high magnification dissecting microscope.

[2] = system: Zebrafish tremblor mutant; experiment: Zebrafish screening: injection into tremblor mutants; assay type: in vivo; details: for Injection into tremblor Mutants: % Rescued: Table 1; for Average rescue ratio: Table 4, over all screens
Description: as §1
as §2, with “Zebrafish tremblor mutant” for “Zebrafish”, “were” for “and 1 nL of morpholino (1 mM) to NCX1h was”

[3] = system: Zebrafish tremblor mutant; experiment: Zebrafish screening: soaking; assay type: in vivo; details: for Soaking: % Rescued: Table 1, tremblor mutants, 20 μM; for Rescue percent: Table 2, tremblor mutant soaked in 20 μM test compounds
Description: as §1
Zebrafish tremblor mutant eggs were collected after fertilization, and arrayed in 24-well plates (20 twenty embryos/well) in 500 μL buffer. After 24 hour fertilization in 29° C., 20 μM testing compound was added and using E3 buffer as background control. After 48 hour fertilization in 29° C., phenotypic changes were observed using a high magnification dissecting microscope.

[4] = Defibrillator activity of efsevin enantiomers
[5] = system: zebrafish tremblor (tre) embryos; experiment: Restoration of coordinated cardiac contractions in tre embryos; assay type: in vivo; details: tremblor embryos
Description: (§3) VDAC2 mRNA and morpholino antisense oligos (5′-[…]-3′) (Genetools) (SEQ ID NO: 9) were injected into one-cell stage embryos collected from crosses of tre^tc318 heterozygotes. Cardiac performance was analyzed by visual inspection on 1 dpf. The tre mutant embryos were identified either by observing the fibrillation phenotype at 2-3 dpf or by genotyping as previously described (Langenbacher et al., 2005).
(§4) Chemicals from a synthetic library (Castellano et al., 2007, J Am Chem Soc 129, 5843-5845; Choi et al., 2011, Development 138, 1173-1181; Cruz et al., 2011, Proc Natl Acad Sci USA 108, 6769-6774) and from Biomol International LP were screened for their ability to partially or completely restore persistent heartbeat in tre embryos. 12 embryos collected from crosses of tre^tc318 heterozygotes were raised in the presence of individual compounds at a concentration of 10 μM from 4 hpf (Choi et al., 2011). Cardiac function was analyzed by visual inspection at 1 and 2 dpf. The hearts of tre^tc318 embryos manifest a chaotic movement resembling cardiac fibrillation with intermittent contractions in rare occasion (Ebert et al., 2005; Langenbacher et al., 2005). Compounds that elicit persistent coordinated cardiac contractions were validated on large number of tre mutant embryos and NCX1h morphants (>500 embryos).

NCX1hMO injected embryos = experiment: Restoration of coordinated cardiac contractions in NCX1h morpholino embryos; assay type: in vivo, zebrafish; details: linker-attached compounds
Description: as §3, §4

VDAC2 = experiment: Affinity bead pull down from zebrafish embryo lysate with mass spectrometry; assay type: binding; details: zebrafish embryonic lysate, affinity agarose beads
Description: For pull down assays mono-N-Boc protected 2,2′-(ethylenedioxy)bis(ethylamine) was attached to the carboxylic ester of efsevin and its derivatives through the amide bond. After removal of the Boc group using TFA, the primary amine was coupled to the carboxylic acid of Affi-Gel 10 Gel (Biorad). Two-day-old zebrafish embryos were deyolked by centrifugation before being lysed with Rubinfeld's lysis buffer (Rubinfeld et al., 1993, Science 262, 1731-1734). The lysate was precleaned by incubation with Affi-Gel 10 Gel to eliminate non-specific binding. Precleaned lysate was incubated with affinity beads overnight. Proteins were eluted from the affinity beads and separated on SDS-PAGE. Protein bands of interest were excised. Gel plugs were dehydrated in acetonitrile (ACN) and dried completely in a Speedvac. Samples were reduced and alkylated with 10 mM dithiotreitol and 10 mM TCEP solution in 50 mM NH4HCO3 (30 min at 56° C.) and 100 mM iodoacetamide (45 min in dark), respectively. Gel plugs were washed with 50 mM NH4HCO3, dehydrated with ACN, and dried down in a Speedvac. Gel pieces were then swollen in digestion buffer containing 50 mM NH4HCO3, and 20.0 ng/μL of chymotrypsin (25° C., overnight). Peptides were extracted with 0.1% TFA in 50% ACN solution, dried down and resuspended in LC buffer A (0.1% formic acid, 2% ACN).
Extracted peptides were analyzed by nano-flow LC/MS/MS on a Thermo Orbitrap with dedicated Eksigent nanopump using a reversed phase column (New Objective). The flow rate was 200 nL/min for separation: mobile phase A contained 0.1% formic acid, 2% ACN in water, and mobile phase B contained 0.1% formic acid, 20% water in ACN. The gradient used for analyses was linear from 5% B to 50% B over 60 min, then to 95% B over 15 min, and finally keeping constant 95% B for 10 min. Spectra were acquired in data-dependent mode with dynamic exclusion where the instrument selects the top six most abundant ions in the parent spectra for fragmentation. […]

[6] = Table 4, injection into tremblor mutants

SMILES: CCOC(=O)C1=CCN(S(=O)(=O)c2ccc(F)cc2)C1c1ccccc1 (racemic) [F7-II-B01]
Injection with Morpholino: % Rescued [1]: 6/67%
Rescue percent [1]: 67%
Injection into tremblor Mutants: % Rescued [2]: 21/81%
Screen 1 Rescue percent [2, 6]: 91%
Screen 2 Rescue percent [2, 6]: 79%
Average rescue ratio [2]: 81%

SMILES: CCOC(=O)C1=CCN(S(=O)(=O)c2ccccc2F)C1c1ccc(C)cc1 (stereo not drawn) [Formula Io]
Injection with Morpholino: % Rescued [1]: 8/75%

SMILES: CCOC(=O)C1=CCN(S(=O)(=O)c2cccc(F)c2)C1c1ccc(F)cc1 (stereo not drawn) [F7-II-B12]
Injection into tremblor Mutants: % Rescued [2]: 21/76%
Screen 1 Rescue percent [2, 6]: 76%
Average rescue ratio [2]: 76%

SMILES: CCOC(=O)C1=CCN(S(=O)(=O)c2ccc(C)cc2)C1c1ccc(C(=O)OCC)cc1 (racemic) [F7-I-A06]
Soaking: % Rescued [3]: 17/88%
Rescue percent [3]: 88%

SMILES: CCOC(=O)C1=CCN(S(=O)(=O)c2ccc(F)cc2)C1c1cccc(C)c1 (stereo not drawn) [F7-I-F09]
Injection with Morpholino: % Rescued [1]: 8/75%
Rescue percent [1]: 75%
Injection into tremblor Mutants: % Rescued [2]: 15/87%
Screen 1 Rescue percent [2, 6]: 87%
Average rescue ratio [2]: 87%

SMILES: CCOC(=O)C1=CCN(S(=O)(=O)c2ccccc2F)C1c1ccc(Cl)cc1 (stereo not drawn) [F7-I-H01]
Injection with Morpholino: % Rescued [1]: 8/63%
Rescue percent [1]: 63%
Injection into tremblor Mutants: % Rescued [2]: 12/83%
Screen 1 Rescue percent [2, 6]: 83%
Average rescue ratio [2]: 83%

SMILES: CCOC(=O)C1=CCN(S(=O)(=O)c2ccccc2Br)C1c1ccc(Cl)cc1 (stereo not drawn) [F7-I-G09]
Injection with Morpholino: % Rescued [1]: 6/67%
Rescue percent [1]: 67%
Injection into tremblor Mutants: % Rescued [2]: 23/87%
Screen 1 Rescue percent [2, 6]: 78%
Average rescue ratio [2]: 78%

SMILES: CCOC(=O)C1=CCN(S(=O)(=O)c2ccc(Cl)cc2)C1c1ccc(Cl)cc1 (stereo not drawn) [F7-I-B07]
Soaking: % Rescued [3]: 18/80%
Rescue percent [3]: 80%

SMILES: CCOC(=O)C1=CCN(S(=O)(=O)c2ccc(C)cc2)C1c1ccc(F)cc1 (stereo not drawn) [F7-I-B04]
Soaking: % Rescued [3]: 8/75%
Rescue percent [3]: 75%

SMILES: CCOC(=O)C1=CCN(S(=O)(=O)c2ccc(C)cc2)[C@@H]1c1ccccc1 [(R)-Efsevin]
defibrillator activity of efsevin: active enantiomer [4]: Active Antipode

SMILES: CCOC(=O)C1=CCN(S(=O)(=O)c2cccc(Cl)c2)C1c1cccc(Cl)c1 (stereo not drawn) [F7-I-F11]
Injection with Morpholino: % Rescued [1]: 8/88%
Rescue percent [1]: 88%
Injection into tremblor Mutants: % Rescued [2]: 28/79%
Screen 1 Rescue percent [2, 6]: 80%
Screen 2 Rescue percent [2, 6]: 78%
Average rescue ratio [2]: 79%

SMILES: Cc1ccc(S(=O)(=O)N2CC=C(C(=O)O)C2c2ccccc2)cc1 (stereo not drawn) [F7 acid]
Rescue percent [3]: 21%

SMILES: CCOC(=O)C1=CCN(S(=O)(=O)c2cccc(F)c2)C1c1ccc(F)cc1 (racemic) [OK-C125]
restoration of rhythmic contractions in tremblor embryos [5]: restored rhythmic contractions in the majority of tremblor embryos
restoration of rhythmic contractions in NCX1hMO injected embryos (NCX1hMO injected embryos): retained their ability to restore rhythmic contractions
pull down of the 32 kD band (VDAC2) (VDAC2): pulled down

pull down of the 32 kD band (VDAC2) (VDAC2): not detected
SMILES: CCOC(=O)C1=CCN(S(C)(=O)=O)C1c1ccccc1 (racemic) [OK-C19]
restoration of rhythmic contractions in tremblor embryos [5]: failed to rescue the tremblor phenotype
restoration of rhythmic contractions in NCX1hMO injected embryos (NCX1hMO injected embryos): unable to induce rhythmic contraction

SMILES: CCOC(=O)C1=CCN(S(=O)(=O)c2ccccc2C)C1c1ccc(F)cc1 (racemic) [F7-I-G04]
Injection with Morpholino: % Rescued [1]: 8/75%
Rescue percent [1]: 75%
Injection into tremblor Mutants: % Rescued [2]: 26/85%
Screen 1 Rescue percent [2, 6]: 78%
Screen 2 Rescue percent [2, 6]: 88%
Average rescue ratio [2]: 85%

SMILES: CCOC(=O)C1=CCN(S(=O)(=O)c2ccc(Cl)cc2)C1c1ccccc1 (racemic) [F7-II-A11]
Injection with Morpholino: % Rescued [1]: 6/0%
Rescue percent [1]: 0%
Injection into tremblor Mutants: % Rescued [2]: 30/73%
Screen 1 Rescue percent [2, 6]: 73%
Average rescue ratio [2]: 73%

SMILES: CCOC(=O)C1=CCN(S(=O)(=O)c2ccc(F)cc2)C1c1ccc(F)cc1 (racemic) [F7-II-A01]
Injection with Morpholino: % Rescued [1]: 8/38%
Rescue percent [1]: 38%
Injection into tremblor Mutants: % Rescued [2]: 27/74%
Screen 1 Rescue percent [2, 6]: 74%
Average rescue ratio [2]: 74%

SMILES: CCOC(=O)C1=CCN(S(=O)(=O)c2ccc(C)cc2)C1c1cccc(C)c1 (racemic) [F7-I-B12]
Soaking: % Rescued [3]: 19/78%
Rescue percent [3]: 78%

SMILES: CCOC(=O)C1=CCN(S(=O)(=O)c2ccc(C)cc2)C1c1ccccc1 (racemic) [F7]
Rescue percent [3]: 72%

SMILES: CCOC(=O)C1=CCN(S(=O)(=O)c2ccccc2F)C1c1ccc(F)cc1 (stereo not drawn) [Formula In]
Injection with Morpholino: % Rescued [1]: 8/88%

SMILES: CCOC(=O)C1=CCN(S(=O)(=O)c2ccccc2F)C1c1ccc(Br)cc1 (racemic) [Formula Im]
Injection with Morpholino: % Rescued [1]: 8/88%

SMILES: CCOC(=O)C1=CCN(S(=O)(=O)c2ccc(Cl)cc2)C1c1ccc(Br)cc1 (racemic) [F7-I-H05]
Injection with Morpholino: % Rescued [1]: 8/88%
Rescue percent [1]: 88%
Injection into tremblor Mutants: % Rescued [2]: 43/74%
Screen 1 Rescue percent [2, 6]: 86%
Screen 2 Rescue percent [2, 6]: 69%
Screen 3 Rescue percent [2, 6]: 75%
Average rescue ratio [2]: 74%

SMILES: CCOC(=O)C1=CCN(S(=O)(=O)c2ccc(F)cc2)C1c1ccc(Cl)c(Cl)c1 (stereo not drawn) [F7-I-F05]
Injection with Morpholino: % Rescued [1]: 14/50%
Rescue percent [1]: 50%
Injection into tremblor Mutants: % Rescued [2]: 10/80%
Screen 1 Rescue percent [2, 6]: 80%
Average rescue ratio [2]: 80%
